Patent US7148325B2, “Chimeric retroviral gag genes and screening assays” (priority 2000, dated 2006)
“Also recorded” adds a separate entry of the source.

Assays:
M-PMV Gag [1] = target: T1, M-PMV Gag (Mason-Pfizer monkey virus, UniProt P07567); experiment: In vitro transcription/translation and assembly, sucrose density gradient fractionation and SDS-PAGE, M-PMV Gag; format: biochemical; conditions: added with cyclohexamide after 30 minutes of incubation, reaction continued 90 minutes
T1 construct: made in house; host or cells: cell-free: coupled in vitro transcription/translation in rabbit reticulocyte lysate
Procedure: (§1) FIGS. 3A–E—In vitro transcription and translation reactions using plasmids containing M-PMV, HIV, and Chimera 3a gag genes. After 30 minutes of incubation, cyclohexamide (left panels, FIGS. 3A, 3C, and 3E) or cyclohexamide plus bis-ANS (right panels, FIGS. 3B, 3D, and 3F) were added to the reactions. The reactions were then allowed to continue for an additional 90 minutes. Assembled products were analyzed by sucrose density gradient fractionation and SDS-PAGE. Like M-PMV, but in contrast to HIV, the formation of sedimented material indicative of particle formation by Chimera 3a has been inhibited by the addition of bis-ANS.
FIGS. 4A–D—In vitro transcription and translation reactions using plasmids containing M-PMV and Chimera 4 gag genes. After 30 minutes of incubation, cyclohexamide (left panels, FIGS. 4A and 4C) or cyclohexamide plus bis-ANS (right panels, FIGS. 4B and 4D) were added to the reactions. The reactions were then allowed to continue for an additional 90 minutes. Assembled products were analyzed by sucrose density gradient fractionation and SDS-PAGE. Like M-PMV, the formation of sedimented material by Chimera 4 has been inhibited by the addition of bis-ANS. Lanes L and P indicate the loading material and re-suspended pellet, respectively. […]

Chimera 4 = target: T2, Chimera 4 (Human immunodeficiency virus type 1 group M subtype B, UniProt P04591); experiment: In vitro transcription/translation and assembly, sucrose density gradient fractionation and SDS-PAGE, Chimera 4 Gag; format: biochemical, HIV / M-PMV; conditions: added with cyclohexamide after 30 minutes of incubation, reaction continued 90 minutes
T2 construct: the megaprimer reaction yielded a product that contained all of HIV Gag fused to M-PMV p12; made in house; host or cells: cell-free: in vitro transcription/translation (reticulocyte lysate) from plasmid pDABCh4
Procedure: FIGS. 4A–D—In vitro transcription and translation reactions using plasmids containing M-PMV and Chimera 4 gag genes. After 30 minutes of incubation, cyclohexamide (left panels, FIGS. 4A and 4C) or cyclohexamide plus bis-ANS (right panels, FIGS. 4B and 4D) were added to the reactions. The reactions were then allowed to continue for an additional 90 minutes. Assembled products were analyzed by sucrose density gradient fractionation and SDS-PAGE. Like M-PMV, the formation of sedimented material by Chimera 4 has been inhibited by the addition of bis-ANS. Lanes L and P indicate the loading material and re-suspended pellet, respectively.
(§2) In vitro assembly assays, such as that taught by Sakalian, M., et al. (1996), “Synthesis and assembly of retrovirus Gag precursors into immature capsids in vitro,” J Virol 70, pp. 3706–15, hereby incorporated by reference in its entirety, maybe used to screen for inhibitors of capsid assembly. Briefly, in vitro transcription of chimeric gag -containing plasmids to produce capped RNA transcripts may be performed using the mMESSAGE MMACHINE kit (Ambion, Austin, Tex.), in accordance with the manufacturers instructions. Translation reactions may be performed in the presence of [^35S]methionine in commercially-available rabbit reticulocyte lysates, according to the instructions of the manufacturer (for example, Promega). […]

HIV Gag = target: T3, HIV Gag (Human immunodeficiency virus type 1 group M subtype B, UniProt P04591); experiment: In vitro transcription/translation, sucrose density gradient fractionation and SDS-PAGE, HIV Gag; format: biochemical; conditions: added with cyclohexamide after 30 minutes of incubation, reaction continued 90 minutes
T3 construct: made in house; host or cells: cell-free: in vitro transcription/translation (reticulocyte lysate)
Procedure: as §1, §2

M-PMV Gag [2] = target: T1, M-PMV Gag; experiment: In vitro transcription/translation, pelleting through a sucrose cushion (rapid centrifugation assay), M-PMV Gag; format: biochemical; conditions: added after 30 minutes, continued 90 minutes; sucrose cushion 35% w/v
Procedure: FIG. 5—In vitro transcription and translation reactions using plasmids containing M-PMV gag genes. After 30 minutes of incubation, anti-p 12 antibody or bis-ANS was added to the reactions. The reactions were then allowed to continue for an additional 90 minutes. Assembled products were analyzed by pelleting through a sucrose cushion (35% w/v). Synthesis reactions were pelleted through a sucrose cushion, and supernatant and pellet were then collected for gel analysis. […] Lanes S and P indicate supernatant and pellet, respectively.

Chimera 3a = target: T4, Chimera 3a (Human immunodeficiency virus type 1 group M subtype B, UniProt P04591); experiment: In vitro transcription/translation and assembly, sucrose density gradient fractionation and SDS-PAGE, Chimera 3a Gag; format: biochemical, HIV / M-PMV; conditions: added with cyclohexamide after 30 minutes of incubation, reaction continued 90 minutes
T4 construct: made in house; host or cells: cell-free: in vitro transcription/translation (reticulocyte lysate) from plasmid pDABCh3a
Procedure: as §1, §2

T1 sequence (P07567 whole entry): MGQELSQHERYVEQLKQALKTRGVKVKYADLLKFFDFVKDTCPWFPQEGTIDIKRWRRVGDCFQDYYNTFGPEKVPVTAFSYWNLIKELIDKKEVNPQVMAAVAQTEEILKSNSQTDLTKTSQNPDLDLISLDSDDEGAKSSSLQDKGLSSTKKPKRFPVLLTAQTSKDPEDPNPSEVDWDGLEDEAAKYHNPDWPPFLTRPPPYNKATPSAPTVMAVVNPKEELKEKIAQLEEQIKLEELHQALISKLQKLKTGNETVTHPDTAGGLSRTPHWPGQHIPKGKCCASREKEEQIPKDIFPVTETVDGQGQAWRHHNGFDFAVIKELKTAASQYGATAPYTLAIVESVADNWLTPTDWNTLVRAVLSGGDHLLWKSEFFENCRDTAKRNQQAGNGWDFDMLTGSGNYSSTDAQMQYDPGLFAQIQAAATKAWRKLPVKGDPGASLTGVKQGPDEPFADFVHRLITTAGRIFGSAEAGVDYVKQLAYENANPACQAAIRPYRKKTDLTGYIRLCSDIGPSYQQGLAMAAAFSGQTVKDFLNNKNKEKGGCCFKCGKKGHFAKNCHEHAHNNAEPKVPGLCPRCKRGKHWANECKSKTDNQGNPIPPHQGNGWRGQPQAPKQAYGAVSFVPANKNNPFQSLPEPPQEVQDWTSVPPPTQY

Compound: O=S(=O)(O)c1cccc2c(-c3ccc(Nc4ccccc4)c4c(S(=O)(=O)O)cccc34)ccc(Nc3ccccc3)c12 [bis-ANS]
- formation of sedimented material by M-PMV Gag (M-PMV Gag [1]): inhibited
- formation of sedimented material by Chimera 4 (Chimera 4): inhibited; also recorded: largely blocked
- distribution of HIV Gag in sucrose gradients (HIV Gag): no effect
- formation of pelletable material by M-PMV Gag (immature M-PMV viral capsids) (M-PMV Gag [2]): reduce or prevent; also recorded: significantly reduce
- formation of sedimented material indicative of particle formation by Chimera 3a (Chimera 3a): inhibited; also recorded: largely blocked
